Reference: patent publication US7399777B2, “Diarylcycloalkyl derivatives, processes for their preparation and their use as pharmceuticals” (Sanofi-Aventis Deutschland GmbH, priority 2001, dated 2008)
pEC50: −log10 of the molar value.

Each molecule was assayed against T1, human PPARα (Homo sapiens, UniProt Q07869) (assay: PPARα reporter cell line assay (stably transfected HEK cells, GR-GAL4-PPARα fusion protein, firefly luciferase reporter)). Conditions: agonist activity in HEK PPARα reporter cell line; 24 h incubation; luciferase luminescence.
T1 construct: expressed in transfected cells; host or cells: HEK cells (human embryo kidney), stably transfected with pcDNA3-GR-GAL4-humanPPARα and the luciferase reporter pdeltaMG4LZ
T1 sequence (Q07869 167-468): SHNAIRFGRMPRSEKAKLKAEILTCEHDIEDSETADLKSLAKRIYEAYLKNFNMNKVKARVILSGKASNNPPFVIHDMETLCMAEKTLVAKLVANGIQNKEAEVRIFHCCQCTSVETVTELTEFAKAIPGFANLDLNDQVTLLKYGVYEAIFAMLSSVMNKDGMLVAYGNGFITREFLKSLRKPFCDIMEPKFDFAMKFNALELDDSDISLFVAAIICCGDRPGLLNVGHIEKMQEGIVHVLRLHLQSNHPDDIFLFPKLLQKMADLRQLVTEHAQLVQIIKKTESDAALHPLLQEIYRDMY
Assay type: cell-based
Source text: To analyze the effectiveness of substances which bind to human PPARα, activating it in agonistic manner, a stable transfected HEK cell line (HEK=human embryo kidney) designated here as “PPARα reporter cell line” is used. It contains two genetic elements, a firefly luciferase reporter element and a PPARα fusion protein (GR-GAL4-PPARα) which controls the expression of the firefly luciferase reporter element in a PPARα ligand dependent way.
The PPARα reporter cell line was established in two steps: First, the firefly luciferase reporter element was constructed and stably transfected into HEK cells. Five DNA binding sites for the yeast transcription factor GAL4 (five repetitions of the sequence 5′-CGGAGTACTGTCCTCCGAG-3′) (SEQ ID NO:1) were cloned 5′ upstream of a 68 bp minimal RNA polymerase II promoter from the GR mouse mammary tumor virus long terminal repeat (accession # V01175) providing a CCAAT-box as well as a TATA-element. Cloning and sequencing was done as described by Sambrook J. et. al. (Molecular cloning, Cold Spring Harbor Laboratory Press, 1989). The complete Photinus pyralis luciferase gene (accession # M 15077) was cloned 3′ downstream of the GAL4 binding sites and the MMTV minimal promoter. The firefly luciferase reporter element consisting of 5 GAL4 binding sites, the MMTV minimal promoter and the full length luciferase gene was recloned into a plasmid backbone harboring a Zeozin resistence gene leading to plasmid “pdeltaMG4LZ”. This vector was transfected in HEK cells as described by Ausubel, F. M. et al. (Current protocols in molecular biology, Vol. 1-3, John Wiley & Sons, Inc., 1995). Stable clones have been selected using Zeozin as a selection agent (0.5 mg/ml).
In a second step, the PPARα fusion protein (GR-GAL4-PPARα) that controls expression of the firefly luciferase reporter element, was stably integrated in this cell background. For this purpose the cDNAs coding for the N-terminal 76 amino acids of the human glucocorticoid receptor (“GR”, accession # P04150) have been linked to amino acids 1-147 of the yeast GAL4-protein (accession # P04386) followed by the ligand binding domain of humanPPARα (amino acids S167-Y468, accession # S74349). The GR-GAL4-human PPARα construct was cloned into plasmid pcDNA3 (Invitrogen) were its expression is driven constitutively by the Cytomegalovirus promoter. The plasmid pcDNA3-GR-GAL4-humanPPARα was transfected in a stable HEK-cell clone that already contained the firefly luciferase reporter element described above. A double-transfected cell line containing both, the firefly luciferase reporter element as well as the GR-GAL4-humanPPARα fusion protein, has been selected on medium supplemented with Zeozin (0.5 mg/ml) and G418 (0.5 mg/ml).
The activity of PPARα agonists is determined in a three day test, described below:
The PPARα reporter cell line is cultivated up to 80% confluence in DMEM medium (# 41965-039, Life Technologies) with the following additives: 10% cs-FCS (fetal calf serum, #SH-30068.03, Hyclone), antibiotics (0.5 mg/ml of zeozin [#R250-01, Invitrogen], 0.5 mg/ml of G418 [#10131-019, Life Technologies], 1% penicillin streptomycin solution [#15140-031, Life Technologies]) and 2 mM of L-glutamine (#25030-032, Life Technologies). Cultivation is carried out in standard cell culture bottles (# 33111, Becton Dickinson) in a cell culture incubator at 37° C. and 5% CO2. The 80% confluent cells are washed once with 30 ml of PBS (#14190-094, Life Technologies), treated with 2 ml of trypsin solution (#25300-054, Life Technologies) at 37° C. for 2 min, taken up in 5 ml of the medium described above and counted in a cell counter. After dilution to 500,000 cells/ml, in each case 35,000 cells are sown into each well of a 96-well microtiter plate having a clear plastic bottom (#3610, Coming Costar). The plates are incubated in a cell incubator at 37° C. and 5% CO2 for 24 h.
The PPARα agonists to be tested are dissolved in DMSO at a concentration of 10 mM. […]

Question: How did the pEC50 turn out when `Cc1ccc(-c2nc(CO[C@@H]3CCC[C@H](OCc4cccc(C)c4C(=O)O)C3)co2)cc1` (stereo in doubt) [VII, cis-2-Methyl-6-[3-(2-p-tolyloxazol-4-ylmethoxy)cyclohexyloxymethyl]benzoic acid] was run?
Answer: 8.40

Question: How did the pEC50 turn out when “2-{3-[2-(4-Fluorophenyl)oxazol-4-ylmethoxy]cyclohexyloxy}-6-methylbenzoic acid [Example I]” was run?
Answer: 9.00

Question: `Cc1cccc(CC[C@H]2CCC[C@H](OCc3coc(-c4ccc(F)cc4)n3)C2)c1C(=O)O` (racemic) [XXIX, rac-trans-2-(2-{3-[2-(4-Fluorophenyl)oxazol-4-ylmethoxy]cyclohexyl}ethyl)-6-methylbenzoic acid] was tested. Which pEC50 did it give?
Answer: 8.85

Question: How did the pEC50 turn out when `Cc1cccc(CO[C@@H]2CCC[C@H](OCc3coc(-c4ccc(F)cc4)n3)C2)c1C(=O)O` (relative stereo) [Example II, (+)-cis-2-(3-(2-(4-Fluorophenyl)oxazol-4-ylmethoxy)cyclohexyloxymethyl)-6-methylbenzoic acid] was run?
Answer: 9.52

Question: With `COc1ccc(-c2nc(CO[C@H]3CCC[C@@H](OCc4cccc(C)c4C(=O)O)C3)co2)cc1` (relative stereo) [IV, cis-2-(3-(2-(4-Methoxyphenyl)oxazol-4-ylmethoxy)cyclohexyloxymethyl)-6-methylbenzoic acid] as the molecule, how does the pEC50 read?
Answer: 9.52

Question: How did the pEC50 turn out when `COc1cccc(-c2nc(CO[C@H]3CCC[C@@H](OCc4cccc(C)c4C(=O)O)C3)c(C)o2)c1` [IL, 2-{1R,3S-3-[2-(3-Methoxy-phenyl)-5-methyl-oxazol-4-ylmethoxy]-cyclohexyloxymethy}-6-methylbenzoic acid] was run?
Answer: 9.28

Question: How did the pEC50 turn out when `COc1ccc(-c2nc(CO[C@@H]3CCC[C@H](OCc4cccc(C)c4C(=O)O)C3)c(C)o2)cc1` [LXV, 2-{1S,3R-3-[2-(4-Methoxyphenyl)-5-methyloxazol-4-ylmethoxy]cyclohexyloxymethyl}-6-methylbenzoic acid] was run?
Answer: 8.96

Question: `Cc1cccc(COC2C=CC(OCc3coc(-c4ccc(F)cc4)n3)C2)c1C(=O)O` (stereo not drawn) [XIX, 2-{4-[2-(4-Fluorophenyl)oxazol-4-ylmethoxy]cyclopent-2-enyloxymethyl}-6-methylbenzoic acid] was tested. Which pEC50 did it give?
Answer: 7.80

Question: `Cc1cccc(COC[C@@H]2CCC[C@H](OCc3coc(-c4ccc(F)cc4)n3)C2)c1C(=O)O` (racemic) [XXV, rac-cis-2-{3-[2-(4-Fluorophenyl)oxazol-4-ylmethoxy]cyclohexylmethoxymethyl}-6-methylbenzoic acid] was tested. Which pEC50 did it give?
Answer: 8.89

Question: How did the pEC50 turn out when `Cc1cccc(CO[C@@H]2CCC[C@H](OCc3nc(-c4cccc(Cl)c4)oc3C)C2)c1C(=O)O` [LI, 2-{1R,3S-3-[2-(3-Chlorophenyl)-5-methyloxazol-4-ylmethoxy]cyclohexyloxymethyl}-6-methylbenzoic acid] was run?
Answer: 9.51

Question: How did the pEC50 turn out when `Cc1cccc(CO[C@H]2CCC[C@@H](OCc3coc(-c4ccccc4)n3)C2)c1C(=O)O` (single isomer, unassigned) [VI, cis-2-Methyl-6-[3-(2-phenyloxazol-4-ylmethoxy)cyclohexyloxymethyl]benzoic acid] was run?
Answer: 9.74

Question: How did the pEC50 turn out when `Cc1ccc(-c2nc(CO[C@H]3CCC[C@@H](OCc4cccc(C)c4C(=O)O)C3)co2)cc1` (stereo in doubt) [VIII, cis-2-Methyl-6-[3-(2-p-tolyloxazol-4-ylmethoxy)cyclohexyloxymethyl]benzoic acid] was run?
Answer: 10.40

Question: How did the pEC50 turn out when `Cc1cccc(-c2nc(CO[C@H]3CCC[C@@H](OCc4cccc(C)c4C(=O)O)C3)c(C)o2)c1` [LIII, 2-{1R,3S-3-[2-(3-Methylphenyl)-5-methyloxazol-4-ylmethoxy]cyclohexyloxymethyl}-6-methylbenzoic acid] was run?
Answer: 9.40

Question: `Cc1ccc(-c2nc(CO[C@H]3CCC[C@@H](OCc4cccc(C)c4C(=O)O)C3)c(C)o2)cc1C` [LIV, 2-{1R,3S-3-[2-(3,4-Dimethylphenyl)-5-methyloxazol-4-ylmethoxy]cyclohexyloxymethyl}-6-methylbenzoic acid] was tested. Which pEC50 did it give?
Answer: 10.10

Question: With `COc1ccc(-c2nc(CO[C@H]3CCC[C@@H](OCc4cccc(C)c4C(=O)O)C3)c(C)o2)cc1` [LXIV, 2-{1R,3S-3-[2-(4-Methoxyphenyl)-5-methyloxazol-4-ylmethoxy]cyclohexyloxymethyl}-6-methylbenzoic acid] as the molecule, how does the pEC50 read?
Answer: 9.89

Question: With `Cc1cccc(CC[C@@H]2CCC[C@H](OCc3coc(-c4ccc(F)cc4)n3)C2)c1C(=O)O` (racemic) [XXVIII, rac-cis-2-(2-{3-[2-(4-Fluorophenyl)oxazol-4-ylmethoxy]cyclohexyl}ethyl)-6-methylbenzoic acid] as the molecule, how does the pEC50 read?
Answer: 9.17

Question: How did the pEC50 turn out when `Cc1cccc(CO[C@@H]2CCC[C@H](OCc3nc(-c4ccc(C(C)C)cc4)oc3C)C2)c1C(=O)O` [Example LXIX, 2-Methyl-6-[(1R,3S)-3-(5-methyl-2-(4-(2-propyl)-phenyl)-oxazol-4-ylmethoxy)-cyclohexyloxymethyl]-benzoic acid] was run?
Answer: 9.96

Question: `COc1ccc(-c2nc(CO[C@H]3CCC[C@@H](OCc4cccc(C)c4C(=O)O)C3)c(C)o2)cc1C` [LXXII, 2-[(1R,3S)-3-(2-(4-methoxy-3-methylphenyl)-5-methyl-oxazol-4-ylmethoxy)-cyclohexyloxymethyl]-6-methyl-benzoic acid] was tested. Which pEC50 did it give?
Answer: 9.62

Question: With `Cc1cccc(CO[C@H]2CCC[C@@H](OCc3nc(-c4ccc(F)cc4)oc3C)C2)c1C(=O)O` (stereo in doubt) [Example X, cis-2-{3-[2-(4-Fluorophenyl)-5-methyloxazol-4-ylmethoxy]cyclohexyloxymethyl}-6-methylbenzoic acid] as the molecule, how does the pEC50 read?
Answer: 9.30

Question: How did the pEC50 turn out when `Cc1ccc(-c2nc(CO[C@@H]3CCC[C@H](OCc4cccc(C)c4C(=O)O)C3)c(C)o2)cc1` [LXIII, 2-Methyl-6-[1S,3R-3-(5-methyl-2-p-tolyloxazol-4-ylmethoxy)cyclohexyloxymethyl]benzoic acid] was run?
Answer: 9.25

Question: With `Cc1ccc(-c2nc(CO[C@H]3CCC[C@@H](OCc4cccc(C)c4C(=O)O)C3)c(C)o2)cc1` [LXII, 2-Methyl-6-[1R,3S-3-(5-methyl-2-p-tolyloxazol-4-ylmethoxy)cyclohexyloxymethyl]benzoic acid] as the molecule, how does the pEC50 read?
Answer: 10.10

Question: With `Cc1cccc(CO[C@@H]2CCC[C@H](OCc3nc(-c4ccccc4)oc3C)C2)c1C(=O)O` [Example LX, 2-Methyl-6-[1R,3S-3-(5-methyl-2-phenyloxazol-4-ylmethoxy)cyclohexyloxymethyl]benzoic acid] as the molecule, how does the pEC50 read?
Answer: 9.70

Question: How did the pEC50 turn out when `Cc1cccc(CO[C@@H]2CCC[C@H](OCc3nc(-c4ccc(F)cc4)oc3C)C2)c1C(=O)O` (stereo in doubt) [IX, cis-2-(3-[2-(4-Fluorophenyl)-5-methyloxazol-4-ylmethoxy]cyclohexyloxymethyl}-6-methylbenzoic acid] was run?
Answer: 10.40

Question: With `Cc1cccc(CO[C@@H]2CCC[C@H](OCc3nc(-c4cccc(C(F)(F)F)c4)oc3C)C2)c1C(=O)O` [Example L, 2-{1R,3S-3-[2-(3-Trifluoromethylphenyl)-5-methyloxazol-4-ylmethoxy]cyclohexyloxymethyl}-6-methylbenzoic acid] as the molecule, how does the pEC50 read?
Answer: 9.72
